Measured values: patent publication US6409716B1, “Drug delivery” (Scimed Life Systems, Inc., priority 1989, dated 2002)

System: intracoronary thrombus
Assay: Local delivery of urokinase from hydrogel-coated balloon during balloon angioplasty in patients
Format: in vivo
Details: all 11 patients; balloon immersed in 50,000 units/ml; pressure in excess of 2 atmospheres; 1-2 inflations, 1-5 minutes
Description: To evaluate the efficacy of local delivery of urokinase during balloon angioplasty in treating intracoronary thrombus according to the invention, 11 patients were treated with hydrogel-coated balloons which had been immersed in a concentrated solution of urokinase (50,000 units/ml). Eight patients presented with acute myocardial infarctions, while the remaining three had unstable angina. Five patients had received intravenous thrombolytic therapy, including systemic thrombolysis. Conventional balloon angioplasty was initially performed in 9 of the 11 patients and was complicated either by acute thrombotic closure (n=7) or slow antegrade flow with the appearance of intracoronary thrombus (n=2). The remaining 2 patients had coronary stenoses with angiographic evidence of thrombus, but were not initially treated with conventional angioplasty.

How did the “outcome of balloon dilatation with urokinase-impregnated, hydrogel-coated balloon” value turn out when urokinase was run?
Its value is “reversal of abrupt closure and dissolution of intracoronary thrombus”.
